What was measured:
[1] = target: Glycogen synthase kinase-3 beta (Homo sapiens, UniProt P49841); test: Inhibition of full-length recombinant human His-tagged GSK3B recombinant in baculovirus expression system using Alexa-Fluor tracer-236 incubated for 60 mins by TR-FRET based Lantha-screen Eu kinase assay
[2] = target: Dual specificity tyrosine-phosphorylation-regulated kinase 1A (Homo sapiens, UniProt Q13627)
[3] = Induction of nuclear localization of GFP-tagged NFAT (unknown origin) expressed in mouse muscle fibres by DAPI staining based assay

Chain of Glycogen synthase kinase-3 beta (P49841 whole entry): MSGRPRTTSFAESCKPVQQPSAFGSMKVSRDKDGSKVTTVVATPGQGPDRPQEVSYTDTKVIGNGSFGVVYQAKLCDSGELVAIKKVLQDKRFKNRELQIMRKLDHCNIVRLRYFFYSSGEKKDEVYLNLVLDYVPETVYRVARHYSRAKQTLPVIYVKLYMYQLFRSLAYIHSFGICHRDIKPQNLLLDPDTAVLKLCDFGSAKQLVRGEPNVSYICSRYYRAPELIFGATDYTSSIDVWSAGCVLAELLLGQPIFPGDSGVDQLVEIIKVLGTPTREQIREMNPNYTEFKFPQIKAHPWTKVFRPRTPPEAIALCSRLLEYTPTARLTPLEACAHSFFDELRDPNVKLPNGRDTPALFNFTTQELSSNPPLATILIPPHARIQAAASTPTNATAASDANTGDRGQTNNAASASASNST

SMILES	IC50 ([1]; read-out: IC50)	IC50 [2]	IC50 [1]	EC50 [3]
Nc1nccc(-c2c[nH]c3c([N+](=O)[O-])cccc23)n1	9950 nM			
Nc1nccc(-c2c[nH]c3c(Br)cccc23)n1	22400 nM	79 nM		
N#Cc1cccc2c(-c3ccnc(N)c3)c[nH]c12	13900 nM	790 nM		
COc1cccc2c(-c3ccnc(N)c3)c[nH]c12		2140 nM	Not Active	
N#Cc1cccc2c(-c3ccnc(N)n3)c[nH]c12	5160 nM	138 nM		
Nc1nccc(-c2c[nH]c3c(Cl)cccc23)n1		46 nM	Not Active	
Clc1cnccc1-c1c[nH]c2cnccc12	9610 nM	61 nM		
Cn1cc(-c2ccncc2)c2ccncc21	4780 nM	89 nM		
Nc1nccc(-c2c[nH]c3cnccc23)n1	12300 nM	1 nM		
Cc1cc(-c2c[nH]c3cnccc23)ccn1		75 nM	Not Active	
Nc1cc(-c2c[nH]c3c(Cl)cccc23)ccn1		94 nM	Not Active	
COc1cc(-c2c[nH]c3cnccc23)ccn1		351 nM	Not Active	
COc1ccc2c(-c3ccnc(N)c3)c[nH]c2c1	12700 nM	2900 nM		
c1cncc(-c2c[nH]c3cnccc23)c1	31000 nM	7960 nM		
COc1ccc2c(c1)[nH]c1c(C)nccc12 [HARMINE]			Not Active	

The remaining compounds from weak to strong by IC50 [2], led by results:

IC50 ([1]; read-out: IC50)	IC50 [2]	IC50 [1]	EC50 [3]	SMILES
	4340 nM	Not Active		Nc1cc(-c2c[nH]c3cc(C(F)(F)F)ccc23)ccn1
	2940 nM	Not Active		Nc1cc(-c2c[nH]c3cc(Cl)ccc23)ccn1
	2020 nM	Not Active		Nc1cc(-c2c[nH]c3cnccc23)ccn1
14800 nM	588 nM			Nc1nccc(-c2c[nH]c3ccccc23)n1
7960 nM	443 nM			COc1ccc2c(-c3ccnc(N)n3)c[nH]c2c1
10700 nM	406 nM			Nc1nccc(-c2c[nH]c3cc(Cl)ccc23)n1
	285 nM	Not Active		Nc1cc(-c2c[nH]c3c([N+](=O)[O-])cccc23)ccn1
	277 nM	Not Active		c1ccc2c(-c3c[nH]c4cnccc34)ccnc2c1
15800 nM	242 nM			COc1cccc2c(-c3ccnc(N)n3)c[nH]c12
7580 nM	109 nM			c1cc(-c2cn(CCCN3CCOCC3)c3cnccc23)ccn1
	69 nM	Not Active		Fc1cc(-c2c[nH]c3cnccc23)ccn1
15300 nM	62 nM			Nc1nccc(-c2c[nH]c3cc(C(F)(F)F)ccc23)n1
	19 nM	Not Active		Cc1nccc(-c2c[nH]c3cnccc23)n1
1010 nM	12 nM			Fc1ccc(Cn2cc(-c3ccncc3)c3ccncc32)cc1
660 nM	8 nM		2800 nM	CC(C)n1cc(-c2ccncc2)c2ccncc21
1140 nM	8 nM			c1cc(-c2cn(CCC3CC3)c3cnccc23)ccn1
9230 nM	1 nM			c1cc(-c2c[nH]c3cnccc23)ccn1

— ChEMBL document CHEMBL4033637, “Developing DYRK inhibitors derived from the meridianins as a means of increasing levels of NFAT in the nucleus” (Bioorg Med Chem Lett, 2017)
